US10870652B2, “Compounds and methods for modulating bruton's tyrosine kinase” (CORVUS PHARMACEUTICALS, INC., priority 2016, dated 2020)

Key:
Type in all cases: biochemical
ITK = molecular target: T1, ITK (Homo sapiens, UniProt Q08881); experiment: ITK IC50 kinase inhibition assay
T1 sequence (Q08881 1-620): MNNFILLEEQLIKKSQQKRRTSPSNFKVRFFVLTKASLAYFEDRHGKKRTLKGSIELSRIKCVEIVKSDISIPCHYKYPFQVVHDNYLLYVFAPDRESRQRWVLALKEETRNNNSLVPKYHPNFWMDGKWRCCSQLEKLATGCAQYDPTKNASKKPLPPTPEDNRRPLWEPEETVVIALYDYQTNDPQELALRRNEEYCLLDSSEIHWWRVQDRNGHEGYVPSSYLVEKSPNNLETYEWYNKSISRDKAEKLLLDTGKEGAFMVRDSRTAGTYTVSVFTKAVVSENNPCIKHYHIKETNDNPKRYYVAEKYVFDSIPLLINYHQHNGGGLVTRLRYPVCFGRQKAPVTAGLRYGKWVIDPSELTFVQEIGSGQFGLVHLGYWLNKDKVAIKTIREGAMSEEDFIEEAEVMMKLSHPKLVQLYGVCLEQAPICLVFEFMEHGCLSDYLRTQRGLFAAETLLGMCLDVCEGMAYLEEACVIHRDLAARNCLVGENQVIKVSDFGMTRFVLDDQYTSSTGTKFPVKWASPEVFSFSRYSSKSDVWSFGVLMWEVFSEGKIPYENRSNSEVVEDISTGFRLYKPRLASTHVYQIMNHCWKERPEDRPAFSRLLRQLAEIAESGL

BTK = BTK (Homo sapiens, UniProt Q06187); experiment: BTK IC50 kinase inhibition assay
BTK, sequence (Q06187 whole entry): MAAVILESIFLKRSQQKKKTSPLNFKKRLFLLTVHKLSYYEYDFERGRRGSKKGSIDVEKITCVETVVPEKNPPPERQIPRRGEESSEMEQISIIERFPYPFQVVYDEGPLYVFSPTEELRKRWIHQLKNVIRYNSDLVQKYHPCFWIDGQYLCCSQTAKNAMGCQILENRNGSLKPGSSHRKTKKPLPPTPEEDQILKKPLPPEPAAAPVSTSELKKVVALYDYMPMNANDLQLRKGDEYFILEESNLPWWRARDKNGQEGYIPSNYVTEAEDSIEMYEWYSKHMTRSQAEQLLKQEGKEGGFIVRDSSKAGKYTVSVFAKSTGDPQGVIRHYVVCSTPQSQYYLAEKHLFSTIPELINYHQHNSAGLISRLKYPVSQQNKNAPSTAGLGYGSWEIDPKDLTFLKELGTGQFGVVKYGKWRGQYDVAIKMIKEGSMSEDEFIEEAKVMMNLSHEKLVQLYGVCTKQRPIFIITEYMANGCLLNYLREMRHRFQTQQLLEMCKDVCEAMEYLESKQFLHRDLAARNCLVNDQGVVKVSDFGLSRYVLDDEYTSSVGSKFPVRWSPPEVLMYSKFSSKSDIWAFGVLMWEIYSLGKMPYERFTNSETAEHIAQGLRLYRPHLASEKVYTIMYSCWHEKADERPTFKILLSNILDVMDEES

JAK3 = molecular target: T2, JAK3 (Homo sapiens, UniProt P52333); experiment: JAK3 IC50 kinase inhibition assay
T2 sequence (P52333 1-1124): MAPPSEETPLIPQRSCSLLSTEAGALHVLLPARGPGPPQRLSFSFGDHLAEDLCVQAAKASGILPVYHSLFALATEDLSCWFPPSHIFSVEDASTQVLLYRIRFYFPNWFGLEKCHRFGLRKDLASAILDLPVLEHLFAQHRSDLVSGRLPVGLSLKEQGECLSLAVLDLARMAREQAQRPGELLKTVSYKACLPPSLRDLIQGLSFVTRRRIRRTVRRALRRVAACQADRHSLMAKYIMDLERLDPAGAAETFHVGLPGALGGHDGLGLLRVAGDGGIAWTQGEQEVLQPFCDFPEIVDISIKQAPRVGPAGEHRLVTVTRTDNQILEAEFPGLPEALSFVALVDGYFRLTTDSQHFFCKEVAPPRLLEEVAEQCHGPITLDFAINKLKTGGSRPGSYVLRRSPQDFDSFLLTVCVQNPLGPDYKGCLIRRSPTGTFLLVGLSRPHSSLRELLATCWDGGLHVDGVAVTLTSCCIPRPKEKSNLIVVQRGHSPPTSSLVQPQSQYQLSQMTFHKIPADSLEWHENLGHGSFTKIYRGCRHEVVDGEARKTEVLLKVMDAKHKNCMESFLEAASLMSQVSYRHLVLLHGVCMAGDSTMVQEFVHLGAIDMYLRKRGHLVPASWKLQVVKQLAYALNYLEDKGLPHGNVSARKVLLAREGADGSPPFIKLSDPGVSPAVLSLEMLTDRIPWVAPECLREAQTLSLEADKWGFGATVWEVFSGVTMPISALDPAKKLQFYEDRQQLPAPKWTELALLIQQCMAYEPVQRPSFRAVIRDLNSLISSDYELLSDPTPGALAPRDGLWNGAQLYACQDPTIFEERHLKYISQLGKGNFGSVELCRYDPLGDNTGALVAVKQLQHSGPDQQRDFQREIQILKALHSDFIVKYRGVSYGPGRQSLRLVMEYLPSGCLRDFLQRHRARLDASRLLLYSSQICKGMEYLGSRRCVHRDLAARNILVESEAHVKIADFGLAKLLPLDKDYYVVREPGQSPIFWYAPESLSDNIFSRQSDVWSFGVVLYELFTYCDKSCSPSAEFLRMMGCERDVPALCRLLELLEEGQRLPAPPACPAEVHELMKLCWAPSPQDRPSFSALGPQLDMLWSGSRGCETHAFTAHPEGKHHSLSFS

RLK = molecular target: T3, RLK (Homo sapiens, UniProt P42681); experiment: RLK IC50 kinase inhibition assay
T3 sequence (P42681 1-527): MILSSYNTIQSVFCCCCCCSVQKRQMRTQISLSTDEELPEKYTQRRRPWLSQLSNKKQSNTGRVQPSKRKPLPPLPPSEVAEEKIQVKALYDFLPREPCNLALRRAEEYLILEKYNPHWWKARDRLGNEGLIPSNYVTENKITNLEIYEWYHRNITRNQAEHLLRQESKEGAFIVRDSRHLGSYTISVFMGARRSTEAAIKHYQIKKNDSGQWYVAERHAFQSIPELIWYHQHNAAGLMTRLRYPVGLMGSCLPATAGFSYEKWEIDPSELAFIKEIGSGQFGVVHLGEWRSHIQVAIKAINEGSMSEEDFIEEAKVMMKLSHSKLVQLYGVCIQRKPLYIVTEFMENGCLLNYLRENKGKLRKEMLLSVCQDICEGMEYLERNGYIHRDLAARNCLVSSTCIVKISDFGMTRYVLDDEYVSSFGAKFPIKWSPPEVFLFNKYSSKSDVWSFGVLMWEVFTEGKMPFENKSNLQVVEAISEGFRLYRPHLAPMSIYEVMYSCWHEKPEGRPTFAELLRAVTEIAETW

TXK = molecular target: T4, TXK (Homo sapiens, UniProt P42681); experiment: TXK IC50 kinase inhibition assay
T4 sequence (P42681 1-527): T3 sequence (P42681 1-527)

Row | Structure (SMILES) | IC50 (ITK) [µM] | IC50 (BTK) [µM] | IC50 (JAK3) [µM] | IC50 (RLK) [µM] | IC50 (TXK) [µM]
1 | C=CC(=O)N1CCC[C@@H](n2nc(-c3ccc(Oc4ccccc4)cc3)c3cnc(N)nc32)C1 [Compound A11] | > 0.5 | < 0.1 | > 0.5 | 0.1 to 0.5 | 
2 | CC#CC(=O)N1CC[C@H]1Cn1nc(-c2ccc(Oc3ccccc3)cc2)c2cncnc21 [Compound A66, (S)-1-(2-((3-(4-phenoxyphenyl)-1H-pyrazolo[3,4-d]pyrimidin-1-yl)methyl)azetidin-1-yl)but-2-yn-1-one] | > 0.5 | 0.1 to 0.5 | > 0.5 |  | > 0.5
3 | C=CC(=O)N1CCC[C@@H](n2nc(-c3ccc(Oc4cccc(F)c4)cc3)c3cncnc32)C1 [Compound A39, (R)-1-(3-(3-(4-(3-fluorophenoxy)phenyl)-1H-pyrazolo[3,4-d]pyrimidin-1-yl)piperidin-1-yl)prop-2-en-1-one] | > 0.5 | < 0.1 | > 0.5 |  | < 0.1
4 | CN(C)CC#CC(=O)N1CC2(CC(n3nc(-c4ccc(Oc5ccccc5)cc4)c4cncnc43)C2)C1 [Compound A75, 4-(dimethylamino)-1-(6-(3-(4-phenoxyphenyl)-1H-pyrazolo[3,4-d]pyrimidin-1-yl)-2-azaspiro[3.3]heptan-2-yl)but-2-yn-1-one] | 0.1 to 0.5 | < 0.1 | 0.1 to 0.5 |  | < 0.1
5 | C=CC(=O)N1CCC[C@@H](n2nc(-c3ccc(Oc4ccccc4)cc3)c3cncc(C#N)c32)C1 [Compound A72, (R)-1-(1-acryloylpiperidin-3-yl)-3-(4-phenoxyphenyl)-1H-pyrazolo[4,3-c]pyridine-7-carbonitrile] | > 0.5 | < 0.1 | > 0.5 |  | < 0.1
6 | CC#CC(=O)N1CC[C@@H](n2nc(-c3ccc(Oc4ccccc4)cc3)c3cncnc32)C1 [Compound A18, (R)-1-(3-(3-(4-phenoxyphenyl)-1H-pyrazolo[3,4-d]pyrimidin-1-yl)pyrrolidin-1-yl)but-2-yn-1-one] | > 0.5 | 0.1 to 0.5 | > 0.5 |  | > 0.5
